Reference: patent publication US8192962B2, “Processes for detecting toxic substances” (Daikin Industries, Ltd., priority 2001, dated 2012)

System: Mitochondria-located protein genes
Assay: DNA chip mRNA expression in yeast, mitochondria-located protein genes (Table 2)
Type: cell-based, Saccharomyces cerevisiae S288C
Details: cells incubated two hours with the chemical substance
Protocol: Yeast (Saccharomyces cerevisiae S288C (α SUC2mal mel gap2 CUP1)) were incubated at 25° C. on YPD medium (yeast extract 1%, polypepton 2%, glucose 2%). One of toxic chemical substances was added to the cells at logarithmic growth phase, and the cells were further incubated for two hours. Cells were cultured without any chemical substance in the same condition, and were used as control. Concentrations of the chemical substances were defined to inhibit the growth of the yeast but not lead to death.
After completion of the incubation, the culture was centrifuged to collect the cells. To the cells, sodium acetate buffer (50 mM sodium acetate, 10 mM EDTA, 1% SDS) was added, and the mixture was shaken at 65° C. for five minutes, followed by returning to room temperature, and obtaining the supernatant, of which the procedures were repeated two times. To the supernatant, ½ amount of a solution of phenol/chloroform was added, and the mixture was centrifuged to give a supernatant, which was added with an equal amount of chloroform, and the mixture was centrifuged to give a supernatant. To the supernatant, an equal amount of isopropanol containing 0.3 M sodium acetate was added, and the mixture was allowed to stand at room temperature for 30 minutes, after which the mixture was centrifuged to give a sediment of the whole RNAs. Seventy % ethanol was added to the sediment, and the mixture was again centrifuged to give a sediment, which was then dried and dissolved in water. mRNA was isolated from the whole RNAs as followings. In view of the fact that a poly A chain is attached to the 3′ terminus of mRNA, a polynucleotide having a poly T structure which was immobilized on the surface of latex beads was used to trap the mRNA, and then the mRNA was washed and eluted with spine column (Oligotex-dT30<Super>mRNA Purification Kit, Takara). Reverse transcription of the mRNA was conducted with a reverse transcriptase (Super Script II Reverse Transcriptase; catalogue No. 18064-014, GibcoBRL) using fluorescence-labeled nucleotides to give cDNAs that were introduced with Cy3-dUTP or Cy5-dUTP during the reverse transcription.
The labeled cDNAs were dissolved in TE buffer (10mM Tris-HCl/1 mM EDTA, pH8.0), and the solution was dropped on the DNA chip containing the whole genes of yeast (DNA Chip Research Inc. Japan) so that the cDNAs were hybridized on the DNA chip at 65° C. for over 12 hours. The fluoresces intensity of the DNA chip was read with a scanner, and the ratio relative to the fluorescence intensity resulting from the absence of chemical substance was estimated as the following, which is shown in Tables 1 to 9: […]

Structure (SMILES): CCCCCCCCCCCCOS(=O)(=O)[O-].[Na+] [(18), sodium lauryl sulfate]
- The level of expressed mRNA in the presence of chemical substance/The level of expressed mRNA in the absence of chemical substance (yeast gene YAL039C): 1.1
- The level of expressed mRNA in the presence of chemical substance/The level of expressed mRNA in the absence of chemical substance (yeast gene YBL022C): 0.7
- The level of expressed mRNA in the presence of chemical substance/The level of expressed mRNA in the absence of chemical substance (yeast gene YBL030C): 1.1
- The level of expressed mRNA in the presence of chemical substance/The level of expressed mRNA in the absence of chemical substance (yeast gene YBL038W): 1.9
- The level of expressed mRNA in the presence of chemical substance/The level of expressed mRNA in the absence of chemical substance (yeast gene YBL099W): 1.2
- The level of expressed mRNA in the presence of chemical substance/The level of expressed mRNA in the absence of chemical substance (yeast gene YBR003W): 1.3
- The level of expressed mRNA in the presence of chemical substance/The level of expressed mRNA in the absence of chemical substance (yeast gene YBR044C): 1.3
- The level of expressed mRNA in the presence of chemical substance/The level of expressed mRNA in the absence of chemical substance (yeast gene YBR091C): 1.0
- The level of expressed mRNA in the presence of chemical substance/The level of expressed mRNA in the absence of chemical substance (yeast gene YBR122C): 1.5
- The level of expressed mRNA in the presence of chemical substance/The level of expressed mRNA in the absence of chemical substance (yeast gene YBR185C): 1.3
- The level of expressed mRNA in the presence of chemical substance/The level of expressed mRNA in the absence of chemical substance (yeast gene YBR221C): 1.0
- The level of expressed mRNA in the presence of chemical substance/The level of expressed mRNA in the absence of chemical substance (yeast gene YBR251W): 1.4
- The level of expressed mRNA in the presence of chemical substance/The level of expressed mRNA in the absence of chemical substance (yeast gene YBR282W): 1.2
- The level of expressed mRNA in the presence of chemical substance/The level of expressed mRNA in the absence of chemical substance (yeast gene YCL057W): 1.1
- The level of expressed mRNA in the presence of chemical substance/The level of expressed mRNA in the absence of chemical substance (yeast gene YCR046C): 1.0
- The level of expressed mRNA in the presence of chemical substance/The level of expressed mRNA in the absence of chemical substance (yeast gene YCR083W): 1.3
- The level of expressed mRNA in the presence of chemical substance/The level of expressed mRNA in the absence of chemical substance (yeast gene YDL067C): 1.7
- The level of expressed mRNA in the presence of chemical substance/The level of expressed mRNA in the absence of chemical substance (yeast gene YDL181W): 1.4
- The level of expressed mRNA in the presence of chemical substance/The level of expressed mRNA in the absence of chemical substance (yeast gene YDL198C): 1.1
- The level of expressed mRNA in the presence of chemical substance/The level of expressed mRNA in the absence of chemical substance (yeast gene YDR079W): 1.3
- The level of expressed mRNA in the presence of chemical substance/The level of expressed mRNA in the absence of chemical substance (yeast gene YDR178W): 2.3
- The level of expressed mRNA in the presence of chemical substance/The level of expressed mRNA in the absence of chemical substance (yeast gene YDR231C): 1.3
- The level of expressed mRNA in the presence of chemical substance/The level of expressed mRNA in the absence of chemical substance (yeast gene YDR258C): 1.3
- The level of expressed mRNA in the presence of chemical substance/The level of expressed mRNA in the absence of chemical substance (yeast gene YDR298C): 1.6
- The level of expressed mRNA in the presence of chemical substance/The level of expressed mRNA in the absence of chemical substance (yeast gene YDR347W): 1.2
- The level of expressed mRNA in the presence of chemical substance/The level of expressed mRNA in the absence of chemical substance (yeast gene YDR377W): 2.5
- The level of expressed mRNA in the presence of chemical substance/The level of expressed mRNA in the absence of chemical substance (yeast gene YDR529C): 2.3
- The level of expressed mRNA in the presence of chemical substance/The level of expressed mRNA in the absence of chemical substance (yeast gene YEL024W): 1.5
- The level of expressed mRNA in the presence of chemical substance/The level of expressed mRNA in the absence of chemical substance (yeast gene YEL039C): 1.1
- The level of expressed mRNA in the presence of chemical substance/The level of expressed mRNA in the absence of chemical substance (yeast gene YER178W): 0.9
- The level of expressed mRNA in the presence of chemical substance/The level of expressed mRNA in the absence of chemical substance (yeast gene YFL016C): 0.9
- The level of expressed mRNA in the presence of chemical substance/The level of expressed mRNA in the absence of chemical substance (yeast gene YGL018C): 1.0
- The level of expressed mRNA in the presence of chemical substance/The level of expressed mRNA in the absence of chemical substance (yeast gene YGL187C): 2.4
- The level of expressed mRNA in the presence of chemical substance/The level of expressed mRNA in the absence of chemical substance (yeast gene YGL191W): 1.7
- The level of expressed mRNA in the presence of chemical substance/The level of expressed mRNA in the absence of chemical substance (yeast gene YGR008C): 4.2
- The level of expressed mRNA in the presence of chemical substance/The level of expressed mRNA in the absence of chemical substance (yeast gene YGR028W): 2.6
- The level of expressed mRNA in the presence of chemical substance/The level of expressed mRNA in the absence of chemical substance (yeast gene YGR062C): 1.1
- The level of expressed mRNA in the presence of chemical substance/The level of expressed mRNA in the absence of chemical substance (yeast gene YGR076C): 1.5
- The level of expressed mRNA in the presence of chemical substance/The level of expressed mRNA in the absence of chemical substance (yeast gene YGR082W): 0.8
- The level of expressed mRNA in the presence of chemical substance/The level of expressed mRNA in the absence of chemical substance (yeast gene YGR174C): 2.3
- The level of expressed mRNA in the presence of chemical substance/The level of expressed mRNA in the absence of chemical substance (yeast gene YGR244C): 3.1
- The level of expressed mRNA in the presence of chemical substance/The level of expressed mRNA in the absence of chemical substance (yeast gene YHR008C): 1.0
- The level of expressed mRNA in the presence of chemical substance/The level of expressed mRNA in the absence of chemical substance (yeast gene YIL155C): 1.4
- The level of expressed mRNA in the presence of chemical substance/The level of expressed mRNA in the absence of chemical substance (yeast gene YJL096W): 1.2
- The level of expressed mRNA in the presence of chemical substance/The level of expressed mRNA in the absence of chemical substance (yeast gene YJL102W): 1.1
- The level of expressed mRNA in the presence of chemical substance/The level of expressed mRNA in the absence of chemical substance (yeast gene YJL133W): 0.7
- The level of expressed mRNA in the presence of chemical substance/The level of expressed mRNA in the absence of chemical substance (yeast gene YJL166W): 4.0
- The level of expressed mRNA in the presence of chemical substance/The level of expressed mRNA in the absence of chemical substance (yeast gene YJL180C): 1.4
- The level of expressed mRNA in the presence of chemical substance/The level of expressed mRNA in the absence of chemical substance (yeast gene YJR045C): 0.9
- The level of expressed mRNA in the presence of chemical substance/The level of expressed mRNA in the absence of chemical substance (yeast gene YJR077C): 0.8
